These results are taken from the supplement of paper PMC10307832.

Common to all, as to assay: relative viability (nuclei count vs DMSO), 5 days (fraction); higher = more cells survive
Compound in the assay “IU1-47 + Decitabine”: CC1=CC(=C(N1C2=CC=C(C=C2)Cl)C)C(=O)CN3CCCCC3 [IU1-47] + Nc1ncn([C@H]2C[C@H](O)[C@@H](CO)O2)c(=O)n1 [Decitabine] (partner 2 µM)
The procedure, abridged:
(§1)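 Relative viability is defined as nuclei in treated wells over nuclei in vehicle wells. Duplicate plates were run and medians reported. Lung cancer cell lines in 1536-well plates were dosed by pin tool one day after seeding, with one drug or with a fixed anchor-drug dose plus five library-drug doses (not always all listed) in √10 steps, and nuclei were counted after 5 days.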

Compound in the assay “IU1-47 + Vorinostat”: CC1=CC(=C(N1C2=CC=C(C=C2)Cl)C)C(=O)CN3CCCCC3 [IU1-47] + O=C(CCCCCCC(=O)Nc1ccccc1)NO [Vorinostat] (partner 1 µM)
Put shortly: as §1

Compound in the assay “FG-4592 + Lapatinib”: Cc1nc(C(=O)NCC(=O)O)c(O)c2ccc(Oc3ccccc3)cc12 [FG-4592] + CS(=O)(=O)CCNCc1ccc(-c2ccc3ncnc(Nc4ccc(OCc5cccc(F)c5)c(Cl)c4)c3c2)o1 [Lapatinib] (partner 2 µM)
Put shortly: as §1

Compound in the assay “FG-4592 + Alpelisib”: Cc1nc(C(=O)NCC(=O)O)c(O)c2ccc(Oc3ccccc3)cc12 [FG-4592] + Cc1nc(NC(=O)N2CCC[C@H]2C(N)=O)sc1-c1ccnc(C(C)(C)C(F)(F)F)c1 [Alpelisib] (partner 2 µM)
Put shortly:
as §1

As for PC-3 [JPC-3], the relative viability with IU1-47 + Decitabine (first compound 0.08 µM) was determined as 0.905; with IU1-47 + Decitabine (first compound 0.253 µM), 0.935; with IU1-47 + Decitabine (first compound 0.8 µM), 0.886; in the assay with IU1-47 + Decitabine (first compound 2.53 µM), 0.834; with IU1-47 + Decitabine (first compound 8 µM) it was 0.888; with IU1-47 + Vorinostat (first compound 0.08 µM), 0.857. Further, the relative viability came out at 1.04 with IU1-47 + Vorinostat (first compound 0.253 µM); 0.772 in the assay with IU1-47 + Vorinostat (first compound 0.8 µM); 0.691 in the assay with IU1-47 + Vorinostat (first compound 2.53 µM); 0.972 with IU1-47 + Vorinostat (first compound 8 µM); 0.446 with FG-4592 + Lapatinib (first compound 0.08 µM); 0.419 with FG-4592 + Lapatinib (first compound 0.253 µM). The relative viability with FG-4592 + Lapatinib (first compound 0.8 µM) was 0.362; with FG-4592 + Lapatinib (first compound 2.53 µM) it was 0.402; with FG-4592 + Lapatinib (first compound 8 µM), 0.439; with FG-4592 + Alpelisib (first compound 0.08 µM) it was 0.966; with FG-4592 + Alpelisib (first compound 0.253 µM) it was 0.972; with FG-4592 + Alpelisib (first compound 0.8 µM), 1.1. For the same cell line, the relative viability amounted to 1 in the assay with FG-4592 + Alpelisib (first compound 2.53 µM) and 1.03 with FG-4592 + Alpelisib (first compound 8 µM).

Take PC-14: the relative viability with IU1-47 + Decitabine (first compound 0.08 µM) was found to be 0.177; in the assay with IU1-47 + Decitabine (first compound 0.253 µM), 0.205; with IU1-47 + Decitabine (first compound 0.8 µM) it was 0.235; with IU1-47 + Decitabine (first compound 2.53 µM) it was 0.261; with IU1-47 + Decitabine (first compound 8 µM), 0.209; with IU1-47 + Vorinostat (first compound 0.08 µM), 0.757. For the same cell line, the relative viability is 0.756 with IU1-47 + Vorinostat (first compound 0.253 µM); 0.734 with IU1-47 + Vorinostat (first compound 0.8 µM); 0.49 with IU1-47 + Vorinostat (first compound 2.53 µM); 0.573 with IU1-47 + Vorinostat (first compound 8 µM); 0.365 in the assay with FG-4592 + Lapatinib (first compound 0.08 µM); 0.317 with FG-4592 + Lapatinib (first compound 0.253 µM). In addition, the relative viability in the assay with FG-4592 + Lapatinib (first compound 0.8 µM) turned out to be 0.345; with FG-4592 + Lapatinib (first compound 2.53 µM) it was 0.336; with FG-4592 + Lapatinib (first compound 8 µM) it was 0.298; in the assay with FG-4592 + Alpelisib (first compound 0.08 µM) it was 0.979; with FG-4592 + Alpelisib (first compound 0.253 µM), 1; with FG-4592 + Alpelisib (first compound 0.8 µM), 0.988. Also, the relative viability was 0.855 with FG-4592 + Alpelisib (first compound 2.53 µM) and 0.956 in the assay with FG-4592 + Alpelisib (first compound 8 µM).

As to RERF-LC-KJ, the relative viability with IU1-47 + Decitabine (first compound 0.08 µM) came to 0.784; in the assay with IU1-47 + Decitabine (first compound 0.253 µM), 0.912; with IU1-47 + Decitabine (first compound 0.8 µM), 0.673; with IU1-47 + Decitabine (first compound 2.53 µM), 0.639; in the assay with IU1-47 + Decitabine (first compound 8 µM) it was 0.578; with IU1-47 + Vorinostat (first compound 0.08 µM), 0.743. In addition, the relative viability with IU1-47 + Vorinostat (first compound 0.253 µM) came to 0.749; with IU1-47 + Vorinostat (first compound 0.8 µM), 0.749; in the assay with IU1-47 + Vorinostat (first compound 2.53 µM), 0.604; in the assay with IU1-47 + Vorinostat (first compound 8 µM), 0.605; in the assay with FG-4592 + Lapatinib (first compound 0.08 µM), 0.793; in the assay with FG-4592 + Lapatinib (first compound 0.253 µM), 0.816. In addition, the relative viability with FG-4592 + Lapatinib (first compound 0.8 µM) was 0.86; in the assay with FG-4592 + Lapatinib (first compound 2.53 µM) it was 0.899; with FG-4592 + Lapatinib (first compound 8 µM), 0.725; with FG-4592 + Alpelisib (first compound 0.08 µM), 0.804; with FG-4592 + Alpelisib (first compound 0.253 µM), 0.749; with FG-4592 + Alpelisib (first compound 0.8 µM), 0.723. Besides, the relative viability in the assay with FG-4592 + Alpelisib (first compound 2.53 µM) was found to be 0.651; in the assay with FG-4592 + Alpelisib (first compound 8 µM), 0.774.

Take SK-LU-1: the relative viability was 0.57 with IU1-47 + Decitabine (first compound 0.08 µM); 0.695 with IU1-47 + Decitabine (first compound 0.253 µM); 0.692 in the assay with IU1-47 + Decitabine (first compound 0.8 µM); 0.56 with IU1-47 + Decitabine (first compound 2.53 µM); 0.543 with IU1-47 + Decitabine (first compound 8 µM); 0.804 in the assay with IU1-47 + Vorinostat (first compound 0.08 µM). Moreover, the relative viability in the assay with IU1-47 + Vorinostat (first compound 0.253 µM) was found to be 0.818; with IU1-47 + Vorinostat (first compound 0.8 µM) it was 0.768; in the assay with IU1-47 + Vorinostat (first compound 2.53 µM), 0.815; with IU1-47 + Vorinostat (first compound 8 µM) it was 0.585; with FG-4592 + Lapatinib (first compound 0.08 µM), 0.774; in the assay with FG-4592 + Lapatinib (first compound 0.253 µM) it was 0.717. Further, the relative viability with FG-4592 + Lapatinib (first compound 0.8 µM) turned out to be 0.776; with FG-4592 + Lapatinib (first compound 2.53 µM), 0.988; with FG-4592 + Lapatinib (first compound 8 µM), 0.88; in the assay with FG-4592 + Alpelisib (first compound 0.08 µM), 1.02; with FG-4592 + Alpelisib (first compound 0.253 µM) it was 0.925; in the assay with FG-4592 + Alpelisib (first compound 0.8 µM), 1.07. The relative viability with FG-4592 + Alpelisib (first compound 8 µM) is 0.917.

Regarding SK-MES-1, the relative viability was 0.329 in the assay with IU1-47 + Decitabine (first compound 0.08 µM); 0.405 in the assay with IU1-47 + Decitabine (first compound 0.253 µM); 0.3 with IU1-47 + Decitabine (first compound 0.8 µM); 0.409 with IU1-47 + Decitabine (first compound 2.53 µM); 0.38 with IU1-47 + Decitabine (first compound 8 µM); 1.09 with IU1-47 + Vorinostat (first compound 0.08 µM). Moreover, the relative viability with IU1-47 + Vorinostat (first compound 0.253 µM) worked out at 1.15; with IU1-47 + Vorinostat (first compound 0.8 µM), 1.26; with IU1-47 + Vorinostat (first compound 2.53 µM), 1.24; with IU1-47 + Vorinostat (first compound 8 µM), 1.03; with FG-4592 + Lapatinib (first compound 0.08 µM), 0.513; in the assay with FG-4592 + Lapatinib (first compound 0.253 µM) it was 0.489. In addition, the relative viability with FG-4592 + Lapatinib (first compound 0.8 µM) amounted to 0.42; in the assay with FG-4592 + Lapatinib (first compound 2.53 µM), 0.489; in the assay with FG-4592 + Lapatinib (first compound 8 µM) it was 0.397; in the assay with FG-4592 + Alpelisib (first compound 0.08 µM), 0.953; with FG-4592 + Alpelisib (first compound 0.253 µM), 0.892; with FG-4592 + Alpelisib (first compound 0.8 µM) it was 0.85. The figures for the relative viability with FG-4592 + Alpelisib (first compound 2.53 µM) and with FG-4592 + Alpelisib (first compound 8 µM) were 0.853 and 0.773, respectively.

In the case of SW 1573, the relative viability with IU1-47 + Decitabine (first compound 0.08 µM) was determined as 0.529; in the assay with IU1-47 + Decitabine (first compound 0.253 µM) it was 0.599; with IU1-47 + Decitabine (first compound 0.8 µM) it was 0.542; in the assay with IU1-47 + Decitabine (first compound 2.53 µM), 0.342; with IU1-47 + Decitabine (first compound 8 µM), 0.506; in the assay with IU1-47 + Vorinostat (first compound 0.08 µM), 0.736. For the same cell line, the relative viability with IU1-47 + Vorinostat (first compound 0.253 µM) worked out at 0.732; with IU1-47 + Vorinostat (first compound 0.8 µM), 0.779; with IU1-47 + Vorinostat (first compound 2.53 µM), 0.454; with IU1-47 + Vorinostat (first compound 8 µM), 0.792; in the assay with FG-4592 + Lapatinib (first compound 0.08 µM), 1.05; with FG-4592 + Lapatinib (first compound 0.253 µM) it was 1.12. Besides, the relative viability stood at 1.11 with FG-4592 + Lapatinib (first compound 0.8 µM); 1.11 with FG-4592 + Lapatinib (first compound 2.53 µM); 1.22 with FG-4592 + Lapatinib (first compound 8 µM); 0.781 in the assay with FG-4592 + Alpelisib (first compound 0.08 µM); 0.733 with FG-4592 + Alpelisib (first compound 0.253 µM); 0.852 with FG-4592 + Alpelisib (first compound 0.8 µM). For the same cell line, the relative viability with FG-4592 + Alpelisib (first compound 2.53 µM) stood at 0.857; in the assay with FG-4592 + Alpelisib (first compound 8 µM), 0.616.
